Assay results published in ChEMBL document CHEMBL3880421, “Indazole compounds and pharmaceutical compositions for inhibiting protein kinases, and methods for their use” (2003).

Experiments:
[1] = Antiproliferative activity against VEGF-stimulated HUVEC cells assessed as reduction in cell viability at 0.5 nM preincubated for 1 hr followed by addition of VEGF measured after 72 hrs by MTT assay; assay type: functional; settings: Homo sapiens
[2] = Antiproliferative activity against VEGF-stimulated HUVEC cells assessed as reduction in cell viability at 2 nM preincubated for 1 hr followed by addition of VEGF measured after 72 hrs by MTT assay; assay type: functional; settings: Homo sapiens

SMILES	inhibition at 0.0005 µM [1] [%]	inhibition at 0.002 µM [2] [%]
Nc1ccc(CNC(=O)c2ccccc2Nc2ccc3c(/C=C/c4ccccn4)n[nH]c3c2)cc1	45	88
CCN(CC)C/C=C/CNC(=O)c1ccccc1Nc1ccc2c(/C=C/c3ccccn3)n[nH]c2c1	10	29
O=C(NN1CCCCC1)c1ccccc1Nc1ccc2c(/C=C/c3ccccn3)n[nH]c2c1	27	17
O=C(NC1CC1)c1ccccc1Nc1ccc2c(/C=C/c3ccccn3)n[nH]c2c1	59	97
CCCC(CCC)NC(=O)c1ccccc1Nc1ccc2c(/C=C/c3ccccn3)n[nH]c2c1	1	52
O=C(NCCS(=O)(=O)O)c1ccccc1Nc1ccc2c(/C=C/c3ccccn3)n[nH]c2c1	16	21
CC(CNC(=O)c1ccccc1Nc1ccc2c(/C=C/c3ccccn3)n[nH]c2c1)c1ccccc1 (configuration not stated)	26	83
CCOCCCNC(=O)c1ccccc1Nc1ccc2c(/C=C/c3ccccn3)n[nH]c2c1	44	97
CN(C)c1ccc(CNC(=O)c2ccccc2Nc2ccc3c(/C=C/c4ccccn4)n[nH]c3c2)cc1	32	24
CC1CCC(NC(=O)c2ccccc2Nc2ccc3c(/C=C/c4ccccn4)n[nH]c3c2)CC1 (configuration not stated)	-11	42
CN1CCN(NC(=O)c2ccccc2Nc2ccc3c(/C=C/c4ccccn4)n[nH]c3c2)CC1	19 to 38	-1
CCCC(C)NC(=O)c1ccccc1Nc1ccc2c(/C=C/c3ccccn3)n[nH]c2c1 (configuration not stated)	29	92
O=C(NOc1ccccc1)c1ccccc1Nc1ccc2c(/C=C/c3ccccn3)n[nH]c2c1	27	80
C=CCNC(=O)c1ccccc1Nc1ccc2c(/C=C/c3ccccn3)n[nH]c2c1	30	86
O=C(Nc1nc[nH]n1)c1ccccc1Nc1ccc2c(/C=C/c3ccccn3)n[nH]c2c1	19	22
CNC(=O)c1ccccc1Nc1ccc2c(/C=C/c3ccccn3)n[nH]c2c1	8	21
O=C(N[C@H](CO)Cc1c[nH]cn1)c1ccccc1Nc1ccc2c(/C=C/c3ccccn3)n[nH]c2c1	22	24
NC(=O)c1ccccc1Nc1ccc2c(/C=C/c3ccccn3)n[nH]c2c1	9	30
O=C(NNCCO)c1ccccc1Nc1ccc2c(/C=C/c3ccccn3)n[nH]c2c1	33	18
O=C(NCC(O)c1ccccc1)c1ccccc1Nc1ccc2c(/C=C/c3ccccn3)n[nH]c2c1 (configuration not stated)	12	55
CC(C)NC(=O)c1ccccc1Nc1ccc2c(/C=C/c3ccccn3)n[nH]c2c1	22	43
O=C(NCCN1CCNC1=O)c1ccccc1Nc1ccc2c(/C=C/c3ccccn3)n[nH]c2c1	5	1
O=C(NC1CCCCC1)c1ccccc1Nc1ccc2c(/C=C/c3ccccn3)n[nH]c2c1	12	76
CN(NC(=O)c1ccccc1Nc1ccc2c(/C=C/c3ccccn3)n[nH]c2c1)C(N)=S	12	29
O=C(NNc1ccccn1)c1ccccc1Nc1ccc2c(/C=C/c3ccccn3)n[nH]c2c1	19 to 32	35 to 92

SMILES	inhibition at 0.0005 µM [1] [%]	inhibition at 0.002 µM [2] [%]
NS(=O)(=O)c1ccc(CCNC(=O)c2ccccc2Nc2ccc3c(/C=C/c4ccccn4)n[nH]c3c2)cc1	26	37
O=C(CNC(=O)c1ccccc1Nc1ccc2c(/C=C/c3ccccn3)n[nH]c2c1)NO	5	9
O=C(NNC(=O)c1ccccc1Nc1ccc2c(/C=C/c3ccccn3)n[nH]c2c1)c1ccc[nH]1	60	99
CONC(=O)c1ccccc1Nc1ccc2c(/C=C/c3ccccn3)n[nH]c2c1	62	99
COC[C@@H]1CCCN1NC(=O)c1ccccc1Nc1ccc2c(/C=C/c3ccccn3)n[nH]c2c1	13	7
CC(C)C(NC(=O)c1ccccc1Nc1ccc2c(/C=C/c3ccccn3)n[nH]c2c1)C(C)C	18	-2
O=C(Cc1ccccc1)NNC(=O)c1ccccc1Nc1ccc2c(/C=C/c3ccccn3)n[nH]c2c1	31	66
Cc1cnc(NC(=O)c2ccccc2Nc2ccc3c(/C=C/c4ccccn4)n[nH]c3c2)s1	20	92
Cc1cc(NC(=O)c2ccccc2Nc2ccc3c(/C=C/c4ccccn4)n[nH]c3c2)n(C)n1	39	13
COC[C@H]1CCCN1NC(=O)c1ccccc1Nc1ccc2c(/C=C/c3ccccn3)n[nH]c2c1	18	11
CC1CCCCN1CCCNC(=O)c1ccccc1Nc1ccc2c(/C=C/c3ccccn3)n[nH]c2c1 (configuration not stated)	25	15
O=C(NCCN(CCO)CCO)c1ccccc1Nc1ccc2c(/C=C/c3ccccn3)n[nH]c2c1	10	23
CCC(COC)NC(=O)c1ccccc1Nc1ccc2c(/C=C/c3ccccn3)n[nH]c2c1 (configuration not stated)	1	65
C[C@@H](NC(=O)c1ccccc1Sc1ccc2c(/C=C/c3ccccn3)n[nH]c2c1)c1ccccc1	9	
Cc1cc(F)ccc1NC(=O)c1ccccc1Sc1ccc2c(/C=C/c3ccccn3)n[nH]c2c1	-22	
O=C(N[C@H](CO)[C@@H](O)c1ccccc1)c1ccccc1Sc1ccc2c(/C=C/c3ccccn3)n[nH]c2c1	10	
CCCCNC(=O)c1ccccc1Nc1ccc2c(/C=C/c3ccccn3)n[nH]c2c1	52	
C[C@@H](CNC(=O)c1ccccc1Sc1ccc2c(/C=C/c3ccccn3)n[nH]c2c1)c1ccccc1	3	
CCCCC(NC(=O)c1ccccc1Sc1ccc2c(/C=C/c3ccccn3)n[nH]c2c1)C(=O)NO (configuration not stated)	0	
Cc1cc(NC(=O)c2ccccc2Sc2ccc3c(/C=C/c4ccccn4)n[nH]c3c2)ccc1Cl	-43	
O=C(Nc1ccc2ncsc2c1)c1ccccc1Sc1ccc2c(/C=C/c3ccccn3)n[nH]c2c1	-20	
O=C(Nc1cccc(-c2nnco2)c1)c1ccccc1Sc1ccc2c(/C=C/c3ccccn3)n[nH]c2c1	-23	
O=C(NC12CC3CC(CC(C3)C1)C2)c1ccccc1Sc1ccc2c(/C=C/c3ccccn3)n[nH]c2c1	3	
C[C@H](NC(=O)c1ccccc1Sc1ccc2c(/C=C/c3ccccn3)n[nH]c2c1)[C@H](O)c1ccccc1	9	
O=C(NCc1ccccc1F)c1ccccc1Nc1ccc2c(/C=C/c3ccccn3)n[nH]c2c1	75	

SMILES	inhibition at 0.0005 µM [1] [%]	inhibition at 0.002 µM [2] [%]
Cn1c(NC(=O)c2ccccc2Sc2ccc3c(/C=C/c4ccccn4)n[nH]c3c2)nc2ccccc21	-21	
Cc1cc(C)c(O)c(NC(=O)c2ccccc2Sc2ccc3c(/C=C/c4ccccn4)n[nH]c3c2)c1	-5	
O=C(N[C@@H]1CN2CC[C@H]1C2)c1ccccc1Nc1ccc2c(/C=C/c3ccccn3)n[nH]c2c1	12	
C#CC(NC(=O)c1ccccc1Sc1ccc2c(/C=C/c3ccccn3)n[nH]c2c1)C1CCCCC1 (configuration not stated)	3	
CC(C)(C)CNC(=O)c1ccccc1Nc1ccc2c(/C=C/c3ccccn3)n[nH]c2c1	5 to 19	
O=C(N[n+]1ccccc1)c1ccccc1Nc1ccc2c(/C=C/c3ccccn3)n[nH]c2c1	48	
CC(C)ONC(=O)c1ccccc1Nc1ccc2c(/C=C/c3ccccn3)n[nH]c2c1	35	
C[C@@H](NC(=O)c1ccccc1Sc1ccc2c(/C=C/c3ccccn3)n[nH]c2c1)c1cccc2ccccc12	1	
CC(C)c1cccc(NC(=O)c2ccccc2Sc2ccc3c(/C=C/c4ccccn4)n[nH]c3c2)c1	8	
C[C@H](NC(=O)c1ccccc1Sc1ccc2c(/C=C/c3ccccn3)n[nH]c2c1)c1ccccc1	-3	
CCCc1ccc(NC(=O)c2ccccc2Sc2ccc3c(/C=C/c4ccccn4)n[nH]c3c2)cc1	22	
COc1ccccc1CNC(=O)c1ccccc1Nc1ccc2c(/C=C/c3ccccn3)n[nH]c2c1	36	
CCc1cccc(NC(=O)c2ccccc2Sc2ccc3c(/C=C/c4ccccn4)n[nH]c3c2)n1	-12	
Cc1ccc(F)c(NC(=O)c2ccccc2Sc2ccc3c(/C=C/c4ccccn4)n[nH]c3c2)c1	-1	
COc1sc(NC(=O)c2ccccc2Sc2ccc3c(/C=C/c4ccccn4)n[nH]c3c2)nc1C	-2	
Cc1cc(C)c(NC(=O)c2ccccc2Sc2ccc3c(/C=C/c4ccccn4)n[nH]c3c2)c(Cl)c1	-26	
O=C(N[C@H](CO)c1ccccc1)c1ccccc1Sc1ccc2c(/C=C/c3ccccn3)n[nH]c2c1	18	
CCONC(=O)c1ccccc1Nc1ccc2c(/C=C/c3ccccn3)n[nH]c2c1	72	
O=C(Nc1ccc2c(c1)CCC2)c1ccccc1Sc1ccc2c(/C=C/c3ccccn3)n[nH]c2c1	-6	
C[C@@H](O)CNC(=O)c1ccccc1Sc1ccc2c(/C=C/c3ccccn3)n[nH]c2c1	22	
C[C@H](CNC(=O)c1ccccc1Sc1ccc2c(/C=C/c3ccccn3)n[nH]c2c1)c1ccccc1	-9	
O=C(Nc1cccc2ccc(O)cc12)c1ccccc1Sc1ccc2c(/C=C/c3ccccn3)n[nH]c2c1	-6	
O=C(Nc1ccc(F)c(F)c1)c1ccccc1Sc1ccc2c(/C=C/c3ccccn3)n[nH]c2c1	-38	
O=C(N[C@H]1CCc2ccccc21)c1ccccc1Sc1ccc2c(/C=C/c3ccccn3)n[nH]c2c1	8 to 15	
